According to patent publication US20240398783A1, “Compounds and Pharmaceutical Compositions Comprising Inhibitors of Amyloid Peptide Interactions with Glycosaminoglycans, Methods of Treatment and Use Thereof” (Gismo Therapeutics, Inc., priority 2021, published 2024):
Structures can show the parent of a compound that is named as a salt.

What follows are compounds tested against Alpha-Synuclein Protofibril binding to heparin (HS-GAG) (Homo sapiens, UniProt P37840) (assay: Inhibition of alpha-synuclein protofibril binding to immobilized heparin-BSA (ELISA)). Conditions: 30 μM compound; alpha-synuclein protofibrils, heparin-BSA; read-out: Alpha-Synuclein/Heparin Activity (% inhibition class).
Parameters: species or system porcine
Experimental: Porcine intestinal mucosa heparin conjugated to Bovine Serum Albumin (Heparin-BSA) was prepared as described (Najjam, S. et al. 1997, Cytokine 12, 1013-1022). Heparin is a sulfated HS-GAG and is commonly used as a HS-GAG in biochemical and binding assays (Lindahl, U. and Kjellen, L. (2013) ibid). Heparin-BSA at 0.01 mg/ml in Phosphate Buffered Saline (PBS; pH 7.4) was added to a 96 well polystyrene ELISA plate (NUNC Cat. No. 449824; 100 μl per well) and incubated Over Night (ON) at 4 degrees Celsius. For negative controls, ELISA plates were coated with BSA instead of Heparin-BSA, using the same procedure. Following the incubation, the plate was washed consecutively, by immersion, with de-ionized water and PBS (pH 7.4). The ELISA plate was then blocked with nonfat milk (2%, 200 μl per well) for 2 hours at Room Temperature (RT) with gentle shaking. Following blocking, the plate was washed with de-ionized water then PBS (pH 7.4). GBAPs were dissolved and diluted in PBS (pH 6.5, supplemented with 0.1% BSA) at desired concentrations, added to the ELISA plates containing immobilized Heparin-BSA (100 μl per well) and incubated for 2 hours at RT with gentle shaking. Following incubation, the plate was washed with de-ionized water and three times with PBS (pH 6.5) plus Tween. Bound GBAP was detected by a monoclonal antibody specific for that GBAP, followed by incubation with secondary antibody conjugated to horseradish peroxidase (HRP). Antibody was diluted in PBS (pH 6.5 supplemented with 1% BSA). Following each incubation with antibody, the plate was washed with de-ionized water and three times with PBS (pH 6.5) wash buffer containing 0.1% Tween. The peroxidase substrate chromogen, TMB (Dako Cat. No. S1599) was added (100 μl per well) to the ELISA plate and incubated at room temperature. After 5 minutes ELISA Stop Solution (hydrochloric acid 1N, sulfuric acid 3N) was added (100 μl per well) to stop the peroxidase catalyzed colorimetric reaction. The Optical Density of the samples was measured at 450 nm using an ELISA plate reader (BioTek Synergy H1). Following color development, the % inhibition compared to control (BSA-coated plates) was determined. IC-50s were calculated using GraphPad Prism software.
The assay was performed as described in Example 43, with the following modifications. Following to coating the plates with Heparin-BSA, plates were washed as described. The compounds were dissolved in DMSO at 10 mM final concentration and further diluted prior to assay. DMSO concentration in the screening well was up to […]. Individual compounds were co-incubated with alpha-synuclein on plates containing immobilized heparin. Alpha-synuclein purchased from rPeptide (Cat. No. S1001) was used to prepare protofibrils as described in Ihse et al., 2017. Alpha-synuclein was dissolved in PBS (pH7.4) to a concentration of 140 μM (˜2 mg/ml), and incubated for 7 days at 37° C. with rotary agitation (400 rpm). Resulting fibrils were sonicated for 10 minutes in ultrasonic water bath, quickly frozen and kept in aliquots at −80 degrees Celsius. Protofibrillar alpha-synuclein diluted in PBS (pH 6.5, supplemented with BSA, 0.1%) was added to the ELISA plate (100 μl per well) and incubated for 2 hours at RT with gentle shaking. Following the incubation, the plate was washed with de-ionized water and three times with PBS (pH 6.5) plus Tween. Bound Alpha-synuclein was detected by Anti-Alpha-synuclein Monoclonal Antibody 211 (Santa Cruz Cat. No. sc-12767), followed by secondary anti-IgG antibody conjugated to HRP (R&D System, Cat. No. HAF007). Following to color development with TMB, as described in Example 43, the Optical Density of the samples was measured at 450 nm using an ELISA plate reader. Following color development, the % inhibition compared to control (no compound, DMSO control) for every compound was determined.
An example of inhibition curve is shown in FIG. 1 for Inhibitor Compounds 22 and 24. […]

Structure (SMILES) | inhibition at 30 µM
C[N+](C)(C)Cc1ccc(/C=N\Nc2ccnc3ccc(Cl)cc23)cc1 [Compound 4, (Z)-1-(4-((2-(6-chloroquinolin-4-yl)hydrazineylidene)methyl)phenyl)—N,N,N-trimethylmethanaminium iodide] | > 30%
Fc1ccc2c(N/N=C/c3ccc(CN4CCOCC4)cc3)ccnc2c1 [Compound 6, (E)-4-(4-((2-(7-fluoroquinolin-4-yl)hydrazono)methyl)benzyl)morpholine] | > 30%
C[n+]1ccc(/C=N\Nc2ccnc3ccccc23)cc1 [Compound 9, (Z)-1-methyl-4-((2-(quinolin-4-yl)hydrazono)methyl)pyridin-1-ium iodide] | < 30%
O=S1(=O)CCN(Cc2ccc(/C=N/Nc3ccnc4cc(F)ccc34)cc2)CC1 [Compound 10, (E)-4-(4-((2-(7-fluoroquinolin-4-yl)hydrazono)methyl)benzyl)thiomorpholine 1,1-dioxide] | < 30%

Same assay, conditions: Alpha-Synuclein/Heparin Activity (IC-50), alpha-synuclein protofibrils, heparin-BSA

Structure (SMILES) | IC50
Clc1ccc2c(N/N=C/c3ccc(-n4cccn4)cc3)ccnc2c1 [Compound 3, (E)-4-((E)-(4-(1H-pyrazol-1-yl)benzylidene)hydrazono)-7-chloro-1,4-dihydroquinoline] | 1.7 µM
CN1CCN(Cc2ccc(/C=N/Nc3ccnc4cc(Cl)ccc34)cc2)CC1 [Compound 7, (E)-7-chloro-4-(2-(4-((4-methylpiperazin-1-yl)methyl)benzylidene)hydrazinyl)quinolone] | 1.41 µM
COc1cc2nccc(N/N=C/c3ccc(-n4ccnc4)c(OC)c3)c2cc1OC [Compound 13, (E)-4-(2-(4-(1H-imidazol-1-yl)-3-methoxybenzylidene)hydrazineyl)-6,7-dimethoxyquinoline phosphate] | 35.2 µM
Clc1ccc2c(N/N=C/c3ccc(-n4ccnc4)nc3)ccnc2c1 [Compound 14, (E)-4-(2-((6-(1H-imidazol-1-yl)pyridin-3-yl)methylene)hydrazineyl)-7-chloroquinoline hydrochloride] | 2.02 µM
Cc1ncn(-c2ccc(/C=N\Nc3ncnc4cc(Cl)ccc34)cn2)c1C [Compound 15, 7-chloro-4-(2-((6-(4,5-dimethyl-1H-imidazol-1-yl)pyridin-3-yl)methylene)hydrazineyl)quinazoline hydrochloride] | 5.22 µM
C/C(=N\Nc1ncnc2cc(Cl)ccc12)c1ccc(-n2cnc(C)c2C)nc1 [Compound 16, 7-chloro-4-(2-(1-(6-(4,5-dimethyl-1H-imidazol-1-yl)pyridin-3-yl)ethylidene)hydrazineyl)quinazoline phosphate] | 3.21 µM
C/C(=N\Nc1ncnc2cc(Cl)ccc12)c1ccc(-n2cc[n+](C)c2)nc1 [Compound 17, (E)-1-(5-(1-(2-(7-chloroquinazolin-4-yl)hydrazineylidene)ethyl)pyridin-2-yl)-3-methyl-1H-imidazol-3-ium iodide phosphoric acid salt] | 13.5 µM
CC(=NNc1ccnc2cc(Cl)ccc12)c1ccc(-n2cnc(C)c2C)nc1 [Compound 22, 7-chloro-4-(2-(1-(6-(4,5-dimethyl-1H-imidazol-1-yl)pyridin-3-yl)ethylidene)hydrazineyl)quinoline] | 2.87 µM
Cc1ncn(-c2ccc(Nc3ncnc4cc(Cl)ccc34)cn2)c1C [Compound 25, 7-chloro-N-(6-(4,5-dimethyl-1H-imidazol-1-yl)pyridin-3-yl)quinazolin-4-amine] | 3.83 µM

Same assay, conditions: alpha-synuclein protofibrils, heparin-BSA; read-out: Alpha-Synuclein/Heparin Activity (IC-50)

Structure (SMILES) | IC50
Cc1cc(-n2ccnc2)ccc1/C=N/Nc1ccnc2cc(Cl)ccc12 [Compound 1, (E)-4-((E)-(4-(1H-imidazol-1-yl)-2-methylbenzylidene)hydrazono)-7-chloro-1,4-dihydroquinoline] | 3.19 µM
C/C(=N\Nc1ncnc2cc(Cl)ccc12)c1ccc(-n2cc(C)nc2C)nc1 [Compound 18, (E)-7-chloro-4-(2-(1-(6-(2,4-dimethyl-1H-imidazol-1-yl)pyridin-3-yl)ethylidene)hydrazineyl)quinazoline phosphoric acid salt] | 1.71 µM
C/C(=N\Nc1ncnc2cc(F)ccc12)c1ccc(-n2cnc(C)c2C)nc1 [Compound 21, (E)-4-(2-(1-(6-(4,5-dimethyl-1H-imidazol-1-yl)pyridin-3-yl)ethylidene)hydrazineyl)-7-fluoroquinazoline] | 2.06 µM
C/C(=N\Nc1nncc2cc(Cl)ccc12)c1ccc(-n2cc(C)nc2C)nc1 [Compound 24, (E)-6-chloro-1-(2-(1-(6-(2,4-dimethyl-1H-imidazol-1-yl)pyridin-3-yl)ethylidene)hydrazineyl)phthalazine] | 6.44 µM
C/C(=N\Nc1ncnc2cc(Cl)ccc12)c1ccc(-n2cc(C)nc2C)nc1 [Compound 27, (E)-7-chloro-4-(2-(1-(6-(2,4-dimethyl-1H-imidazol-1-yl)pyridin-3-yl)ethylidene)hydrazineyl)quinazoline hydrochloride] | 1.95 µM

Same assay, conditions: read-out: Alpha-Synuclein/Heparin Activity (% inhibition class)

Structure (SMILES) | inhibition at 30 µM
Cc1ncn(-c2ccc(/C=N/Nc3ccnc4cc(Cl)ccc34)cc2)c1C [Compound 2, (E)-7-chloro-4-((E)-(4-(4,5-dimethyl-1H-imidazol-1-yl)benzylidene)hydrazono)-1,4-dihydroquinoline] | < 30%
Fc1ccc2c(N/N=C/c3ccc(-n4ccnc4)cc3)ccnc2c1 [Compound 5, (E)-4-(2-(4-(1H-imidazol-1-yl)benzylidene)hydrazinyl)-7-fluoroquinoline] | < 30%
C(=N\Nc1ccc2c3c(cccc13)CC2)/c1ccc(-n2ccnc2)cc1 [Compound 8, (E)-1-(4-((2-(1,2-dihydroacenaphthylen-5-yl)hydrazineylidene)methyl)phenyl)-1H-imidazole] | < 30%
COc1cc2nccc(NN=Cc3ccc(-n4ccnc4)c(C)c3)c2cc1OC [Compound 11, 4-(2-(4-(1H-imidazol-1-yl)-3-methylbenzylidene)hydrazineyl)-6,7-dimethoxyquinoline hydrochloride] | < 30%
COc1ccc2c(NN=Cc3ccc(-n4ccnc4)c(C)c3)ccnc2c1 [Compound 12, 4-(2-(4-(1H-imidazol-1-yl)-3-methylbenzylidene)hydrazineyl)-7-methoxyquinoline] | < 30%
C/C(=N\Nc1ncnc2ccccc12)c1ccc(-n2cc(C)nc2C)nc1 [Compound 19, (E)-4-(2-(1-(6-(2,4-dimethyl-1H-imidazol-1-yl)pyridin-3-yl)ethylidene)hydrazineyl)quinazoline] | < 30%
CN1CCN(c2cc(Nc3ccnc4cc(Cl)ccc34)ccn2)CC1 [Compound 20, 7-chloro-N-(2-(4-methylpiperazin-1-yl)pyridin-4-yl)quinolin-4-amine] | < 30%
CC(=NNc1ccnc2cc(Cl)ccc12)c1ccc(-n2cc[n+](C)c2)nc1 [Compound 23, 1-(5-(1-(2-(7-chloroquinolin-4-yl)hydrazineylidene)ethyl)pyridin-2-yl)-3-methyl-1H-imidazol-3-ium iodide] | < 30%
C/C(=N\Nc1ncnc2cc(F)ccc12)c1ccc(-n2cc[n+](C)c2)nc1 [Compound 26, (E)-1-(5-(1-(2-(7-fluoroquinazolin-4-yl)hydrazineylidene)ethyl)pyridin-2-yl)-3-methyl-1H-imidazol-3-ium phosphoric acid salt] | > 30%
